From patent US11306102B2, “1,3-di-substituted ketene compound and application thereof” (BEBETTER MED INC., priority 2017, dated 2022)

Tests used:
[1] = biological target: T1, PPARγ (Homo sapiens, UniProt P37231); assay: Hela cell/luciferase reporter gene method, PPARγ agonist activity; format: cell-based; settings: for EC50: Hela cells, pPPRE3-TK-Luciferase reporter, 24 hrs incubation, read-out: agonistic activity on PPARγ (EC50)
T1 construct: expressed in transfected cells; host or cells: Hela cells
T1 sequence (P37231 1-505): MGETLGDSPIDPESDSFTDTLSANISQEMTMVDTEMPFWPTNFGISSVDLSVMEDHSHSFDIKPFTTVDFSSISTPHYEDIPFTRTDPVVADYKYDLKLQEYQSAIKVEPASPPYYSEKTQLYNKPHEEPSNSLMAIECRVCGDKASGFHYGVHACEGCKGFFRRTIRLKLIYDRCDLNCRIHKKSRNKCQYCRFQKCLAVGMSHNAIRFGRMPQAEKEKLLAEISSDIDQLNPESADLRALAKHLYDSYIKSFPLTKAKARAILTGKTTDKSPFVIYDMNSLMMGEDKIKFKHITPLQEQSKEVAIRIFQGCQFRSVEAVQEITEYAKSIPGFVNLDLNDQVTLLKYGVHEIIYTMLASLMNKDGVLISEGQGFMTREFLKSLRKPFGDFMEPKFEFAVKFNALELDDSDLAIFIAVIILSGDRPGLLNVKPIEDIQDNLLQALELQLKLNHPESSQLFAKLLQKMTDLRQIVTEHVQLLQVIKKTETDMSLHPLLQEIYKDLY
Description: (§1) This example measures the biological activity of a PPAR agonist using the Hela cell/luciferase reporter gene method.
(§2) The target plasmids PCMV PPARα (Ampicillin+), PCMV PPARγ (Ampicillin+), PCMV PPARδ (Ampicillin+), and pPPRE3-TK-Luciferase (Ampicillin+) were introduced into DH5a competent cells by heat shock treatment, respectively. After being incubated for 1 hour at 37° C. with shaking (180 rpm), the cells were inoculated on LB agar solid medium containing antibiotic Ampicillin, and invertedly cultured at 37° C. for 12-16 hours. Then the monoclonal colony cultured on the medium was taken and inoculated into LB liquid medium for expanded culture. The desired plasmid was extracted from the resulting bacterial solution with a Plasmid Midi Kit (Qiagen; #12143). The plasmid obtained by centrifugation was suspended in TE buffer, and the plasmid concentration was measured and the mixture was stored at −20° C. Hela cells in the exponential phase were seeded in 6-well plates (8-10^5 cells/well), and after 6-8 hours of culture, the cells were transfected using Lipofectamine® 3000 Transfection Reagent (Invitrogen; #L3000015). A plasmid containing a PPAR binding site (peroxisome proliferator response element, PPRE) and a firefly luciferase gene (pPPRE3-TK-Luciferase) and PPAR expression vector were co-transfected into a Hela cell with a total amount of plasmid DNA of 2.5 ug (the mass ratio of each PPAR expression vector is pPPRE:PPARα=6:1, pPPRE:PPARδ=8:1, and pPPRE:PPARγ=2:1) to construct a drug screening cell model for PPAR agonists. PPAR was binded to the ligand and then binded to the peroxisome proliferator response element (PPRE), thereby initiating downstream firefly luciferase expression and its expression intensity was directly proportional to the degree of PPAR activation. The cells after 24 hours transfection were prepared into a cell suspension with a cell concentration of […] by a complete culture solution, and seeded into a 96-well plate with 100 ul per well. After overnight culture, the medium was changed to a medium containing 1% FBS. 10 mM candidate compound stock (1000×) were 4-fold diluted in DMSO for 8 points, then supplemented with medium containing 1% FBS to a final concentration of 50 uM (5×) by addition of 25 μl of 5× compound diluent to each well in different concentration gradients and incubated under 37° C., 5% CO2 incubator for 24 hrs. The 96-well plate was taken out and 30 μl of Bright-Glo™ Luciferase Assay System (Promega #E2620) was added to each well. The Luciferase luminescence intensity was measured by a SynergyH1 full-function microplate detector. The obtained data was used to calculate EC50 using GraphPad Prism 5.0 software to determine the biological activity of the compound.
(§3) The agonistic activity of the compounds synthesized in Examples 1-41 on PPAR is represented by EC50 (see Table 1). EC50 refers to the drug concentration at which the compound has a 50% increase in the agonistic activity of the measured PPAR. The compound numbers in Table 1 correspond to the compound numbers in Examples 1-41.

[2] = biological target: T2, PPARα (Homo sapiens, UniProt Q07869); assay: Hela cell/luciferase reporter gene method, PPARα agonist activity; format: cell-based; settings: for EC50: Hela cells, pPPRE3-TK-Luciferase reporter, 24 hrs incubation, read-out: agonistic activity on PPAα (EC50); for ratio of PPARγ/PPARα activated (EC50 ratio): under the experimental conditions of the present disclosure
T2 construct: expressed in transfected cells; host or cells: Hela cells
T2 sequence (Q07869 1-468): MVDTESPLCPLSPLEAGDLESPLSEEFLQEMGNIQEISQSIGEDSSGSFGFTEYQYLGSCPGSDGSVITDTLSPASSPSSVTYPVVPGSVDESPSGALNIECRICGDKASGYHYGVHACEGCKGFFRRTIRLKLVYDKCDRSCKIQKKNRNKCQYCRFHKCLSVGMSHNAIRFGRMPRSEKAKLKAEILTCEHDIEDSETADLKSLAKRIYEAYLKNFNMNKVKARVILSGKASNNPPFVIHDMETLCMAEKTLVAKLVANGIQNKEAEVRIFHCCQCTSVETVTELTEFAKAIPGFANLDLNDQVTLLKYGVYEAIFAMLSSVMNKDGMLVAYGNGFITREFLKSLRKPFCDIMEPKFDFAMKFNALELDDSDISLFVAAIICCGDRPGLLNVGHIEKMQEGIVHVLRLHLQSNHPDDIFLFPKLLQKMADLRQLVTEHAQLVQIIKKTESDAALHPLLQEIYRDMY
Description: as §1, §2, §3

Row | Structure (SMILES) | EC50 [1] [nM] | activation of PPARγ compared with Elafibranor (in words) [1] | EC50 [2] [nM] | increased activity for activation of PPARα compared with Elafibranor [2] [fold] | ratio of PPARγ/PPARα activated (EC50 ratio) [2]
1 | CSc1ccc2c(C)c(C(=O)/C=C/c3cc(C)c(OC(C)(C)C(=O)O)c(C)c3)oc2c1 [Compound 62, (E)-2-(2,6-dimethyl-4-(3-(3-methyl-6-(methylthio)benzofuran-2-yl)-3-oxoprop-1-en-1-yl)phenoxy)-2-methylpropanoic acid] | 132 | weak activation | 16.6 | 1 | 7.98
2 | CCc1c(C(=O)/C=C/c2cc(C)c(OC(C)(C)C(=O)O)c(C)c2)oc2cc(SC)ccc12 [Compound 63, (E)-2-(4-(3-(3-ethyl-6-(methylthio)benzofuran-2-yl)-3-oxoprop-1-en-1-yl)-2,6-dimethylphenoxy)-2-methylpropanoic acid] | 95.5 | – | 19.2 | – | –
3 | CSc1ccc2c(C)c(C(=O)/C=C/c3cc(Cl)c(OC(C)(C)C(=O)O)c(Cl)c3)oc2c1 [Compound 103, (E)-2-(2,6-dichloro-4-(3-(3-methyl-6-(methylthio)benzofuran-2-yl)-3-oxoprop-1-en-1-yl)phenoxy)-2-methylpropanoic acid] | 788 | significantly reduced | 8.7 | – | 90.59
4 | CSc1ccc2cc(C(=O)/C=C/c3cc(Cl)c(OC(C)(C)C(=O)O)c(Cl)c3)oc2c1 [Compound 100, (E)-2-(2,6-dichloro-4-(3-(6-(methylthio)benzofuran-2-yl)-3-oxoprop-1-en-1-yl)phenoxy)-2-methylpropanoic acid] | 475 | significantly reduced | 2 | – | 237.55
5 | CSc1ccc(C(=O)/C=C/c2cc(C)c(OC(C)(C)C(=O)O)c(C)c2)c2ccoc12 [Compound 27, (E)-2-(2,6-dimethyl-4-(3-(7-(methylthio)benzofuran-4-yl)-3-oxoprop-1-en-1-yl)phenoxy)-2-methylpropanoic acid] | 124 | – | 59.1 | – | –
6 | COc1ccc2cc(C(=O)/C=C/c3cc(C)c(OC(C)(C)C(=O)O)c(C)c3)oc2c1 [Compound 43, (E)-2-(4-(3-(6-methoxybenzofuran-2-yl)-3-oxoprop-1-en-1-yl)-2,6-dimethylphenoxy)-2-methylpropanoic acid] | 116 | – | 39.8 | – | –

Now from value to molecule:

Row | EC50 [1] [nM] | activation of PPARγ compared with Elafibranor (in words) [1] | EC50 [2] [nM] | increased activity for activation of PPARα compared with Elafibranor [2] [fold] | ratio of PPARγ/PPARα activated (EC50 ratio) [2] | Structure (SMILES)
7 | 26.2 | – | 24.4 | – | – | CSc1ccc(C(=O)/C=C/c2cc(C)c(OC(C)(C)C(=O)O)c(C)c2)c2occc12 [Compound 5, (E)-2-(2,6-dimethyl-4-(3-(4-(methylthio)benzofuran-7-yl)-3-oxoprop-1-en-1-yl)phenoxy)-2-methylpropanoic acid]
8 | 35.3 | little effect | 4 | 7 | 8.83 | CSc1ccc2cc(C(=O)/C=C/c3cc(C)c(OC(C)(C)C(=O)O)c(C)c3)oc2c1 [Compound 51, (E)-2-(2,6-dimethyl-4-(3-(6-(methylthio)benzofuran-2-yl)-3-oxoprop-1-en-1-yl)phenoxy)-2-methylpropanoic acid]
9 | 92.3 | – | 46.7 | – | – | CSc1cccc2oc(C(=O)/C=C/c3cc(C)c(OC(C)(C)C(=O)O)c(C)c3)cc12 [Compound 60, (E)-2-(2,6-dimethyl-4-(3-(4-(methylthio)benzofuran-2-yl)-3-oxoprop-1-en-1-yl)phenoxy)-2-methylpropanoic acid]
10 | 94.1 | – | 24.9 | – | – | CSc1ccc2cc(C(=O)/C=C/c3cc(C)c(OC(C)(C)C(=O)O)c(C)c3)sc2c1 [Compound 81, (E)-2-(2,6-dimethyl-4-(3-(6-(methylthio)benzo[b]thiophen-2-yl)-3-oxoprop-1-en-1-yl)phenoxy)-2-methylpropanoic acid]
11 | 62.6 | – | 9.6 | – | – | CCSc1ccc(C(=O)/C=C/c2cc(C)c(OC(C)(C)C(=O)O)c(C)c2)c2occc12 [Compound 6, (E)-2-(4-(3-(4-(ethylthio)benzofuran-7-yl)-3-oxoprop-1-en-1-yl)-2,6-dimethylphenoxy)-2-methylpropanoic acid]
12 | 31.6 | – | 75.1 | – | – | Cc1cc(/C=C/C(=O)c2ccc3c(c2)CCS3)cc(C)c1OC(C)(C)C(=O)O [Compound 36, (E)-2-(4-(3-(2,3-dihydrobenzo[b]thiophen-5-yl)-3-oxoprop-1-en-1-yl)-2,6-dimethylphenoxy)-2-methylpropanoic acid]
13 | 29.3 | – | 13.9 | – | – | CCSc1ccc2c(C)c(C(=O)/C=C/c3cc(C)c(OC(C)(C)C(=O)O)c(C)c3)oc2c1 [Compound 74, (E)-2-(4-(3-(6-(ethylthio)-3-methylbenzofuran-2-yl)-3-oxoprop-1-en-1-yl)-2,6-dimethylphenoxy)-2-methylpropanoic acid]
